Where two headings read alike, the source gives them in different places.
What was measured:
Type in all cases: cell-based, human
MET1 cells = experiment: Phototoxicity assay in MET1 cells (irradiation 2.5 J/cm², resazurin); conditions: Homo sapiens, MET-1, light or radiation study, MET1 cells, treated 24 h
Method: (§1) The […] SCC cell line (human squamous cell carcinoma) was obtained from Ximbio (London, UK), HaCaT (immortalized human keratinocytes cell line) was obtained from Addexbio (San Diego, CA, USA) and WM983b (human metastatic melanoma cell line) was obtained from Rockland (Pottstown, PA, USA). […] Cells were cultivated in an incubator (Sanyo MCO-19AIC-UV) at 37 °C in a 5% CO2 humidified atmosphere. […] The plates were incubated for 24 h, followed by washing with PBS supplemented with calcium and magnesium. Afterwards, complete culture medium without phenol red was added, and the plates were irradiated from above and submitted to a dose of 2.5 J/cm2 of irradiation emitted by different wavelength light sources coupled with a homemade irradiation system created in our laboratory. […] This experiment was performed in an incubator that was able to keep plates in a dark environment; therefore, the dark control plates were protected from any light source, as well as the others, with the exception of the irradiation that each one was submitted to. Plates were incubated for another 24 h, and finally, the resazurin assay was performed as previously described in Section 3.3. For the phototoxicity study using WM983b cells, plates were prepared at a cell density of 40,000 cells/cm2, and cells were treated with MB and AO only.

[1] = as above; conditions: human, MET1 squamous cell carcinoma cells; MET1 cells, 457 nm, all investigated concentrations (1.25-40 µM); read-out: cell viability under 457 nm light
Method: as §1

WM983b cells = experiment: Cytotoxicity (resazurin cell viability) in WM983b cells; conditions: for IC50: Homo sapiens, 1.25-320 µM
Source text: The MET1 SCC cell line (human squamous cell carcinoma) was obtained from Ximbio (London, UK), HaCaT (immortalized human keratinocytes cell line) was obtained from Addexbio (San Diego, CA, USA) and WM983b (human metastatic melanoma cell line) was obtained from Rockland (Pottstown, PA, USA). Cells were maintained in Dulbecco’s Modified Eagle Medium (DMEM) supplemented with 10% (v/v) fetal bovine serum (FBS) for MET1 and HaCaT and 5% (v/v) for WM983b cells, and Pen–Strep (penicillin 100 U/mL and streptomycin 100 µg/mL). Cells were cultivated in an incubator (Sanyo MCO-19AIC-UV) at 37 °C in a 5% CO2 humidified atmosphere.
First, 96-well plates were seeded with HaCaT and MET1 cells at a density of 20,000 cells/cm² and incubated for 24 h. After that period, the culture medium was replaced by culture medium containing different compounds: MB, AO, GV, QT, CUR, EGCG, PHE, NEO and BIPY. The compounds were diluted in culture medium using a range of concentrations of each compound from 1.25 µM to 320 µM (in quadruplicate). The medium was aspirated from the 96-well plate and replaced by the samples diluted in medium. Cells cultured with complete medium and cells cultured with medium supplemented with 0.2% (v/v) or 10% (v/v) of DMSO were used as negative (NC), solvent (SC) and positive controls (PC), respectively. The plates were incubated for 24 and 48 h, followed by evaluation of cell viability using a colorimetric assay. Cells containing samples were washed with PBS supplemented with calcium and magnesium; then, resazurin solution diluted in DMEM at 0.02 mg/mL was added. The medium containing resazurin was also dispensed in wells without cells, which were used as references. After 3 h of incubation, the absorbance was measured in a microplate reader (ELX800UV, Biotek Instruments) at wavelengths of 570 nm and 600 nm. The corrected absorbance was proportional to cell viability. Propagation of uncertainties was used to calculate the combined standard uncertainty. For the cytotoxicity study using WM983b cells, plates were seeded at a density of 40,000 cells/cm², and cells were treated only with MB and AO.

CN(C)c1ccc2cc3ccc(N(C)C)cc3nc2c1 [Acridine orange, acridine orange]
IC50 (MET1 cells; 254 nm light, 2.5 J/cm², read-out: IC50 254 nm): 7.1 µM
IC50 (MET1 cells; 457 nm light, 2.5 J/cm², read-out: IC50 457 nm): 0.4 µM
IC50 (MET1 cells; 583 nm light, 2.5 J/cm², read-out: IC50 583 nm): 4.1 µM
IC50 (MET1 cells; 640 nm light, 2.5 J/cm², read-out: IC50 640 nm): 6.6 µM
IC50 (MET1 cells; dark control (no irradiation), read-out: IC50 Dark): 11.5 µM
viability at 24 h [1]: < 10%
concentration above which the relative cell population falls below 70% (WM983b cells; 24 or 48 h): > 20 µM
IC50 (WM983b cells; 24 h exposure, read-out: IC50 WM983b cells 24 h): 25.2 µM
IC50 (WM983b cells; 48 h exposure, read-out: IC50 WM983b cells 48 h): 6.6 µM

— article PMC10054552, “Phototoxic Potential of Different DNA Intercalators for Skin Cancer Therapy: In Vitro Screening” (International Journal of Molecular Sciences, 2023)
